Results on 33 compounds are retold here after ChEMBL document CHEMBL1201862, “PubChem BioAssay data set” (2004).

The target in test [1] is T1, fMet-Leu-Phe receptor (Homo sapiens, UniProt P21462).
T1 sequence (P21462 whole entry): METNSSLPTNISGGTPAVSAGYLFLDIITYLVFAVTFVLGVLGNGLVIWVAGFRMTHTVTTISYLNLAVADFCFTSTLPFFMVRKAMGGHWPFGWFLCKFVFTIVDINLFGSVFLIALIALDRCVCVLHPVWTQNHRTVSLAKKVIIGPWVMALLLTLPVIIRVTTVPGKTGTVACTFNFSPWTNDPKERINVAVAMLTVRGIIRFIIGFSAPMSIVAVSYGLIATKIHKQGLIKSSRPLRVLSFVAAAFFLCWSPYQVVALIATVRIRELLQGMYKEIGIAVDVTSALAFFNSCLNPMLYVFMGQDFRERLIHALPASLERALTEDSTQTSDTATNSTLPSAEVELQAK
Description: FPR ligands, dose response (AID 519). In kind it is functional.

Test [2] deals with G-protein coupled receptor 55 (Homo sapiens, UniProt Q9Y2T6). Description: GPR55 antagonists blocking LPI-driven arrestin recruitment, primary screen, imaging, U2OS, beta-arrestin-GFP, LPI agonist (AID 2013).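 Further: antagonist potency measured as reduced agonist-driven arrestin aggregation.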 In kind it is functional.
Sequence of G-protein coupled receptor 55 (Q9Y2T6 whole entry): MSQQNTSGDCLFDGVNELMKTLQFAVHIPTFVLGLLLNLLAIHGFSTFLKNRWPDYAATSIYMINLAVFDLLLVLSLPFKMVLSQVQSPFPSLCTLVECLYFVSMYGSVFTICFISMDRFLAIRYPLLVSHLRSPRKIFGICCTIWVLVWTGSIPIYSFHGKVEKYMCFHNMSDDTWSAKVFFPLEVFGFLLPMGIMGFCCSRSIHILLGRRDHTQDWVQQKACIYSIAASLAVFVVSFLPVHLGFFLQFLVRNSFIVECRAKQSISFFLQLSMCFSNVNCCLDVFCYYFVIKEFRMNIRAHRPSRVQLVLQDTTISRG
In test [3] the target is T2, Coagulation factor XII (Homo sapiens, UniProt P00748).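 Further: activated factor XIIa alpha cleaving a fluorogenic AMC peptide substrate; inhibitor potency from loss of enzyme activity.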
T2 sequence (P00748 whole entry): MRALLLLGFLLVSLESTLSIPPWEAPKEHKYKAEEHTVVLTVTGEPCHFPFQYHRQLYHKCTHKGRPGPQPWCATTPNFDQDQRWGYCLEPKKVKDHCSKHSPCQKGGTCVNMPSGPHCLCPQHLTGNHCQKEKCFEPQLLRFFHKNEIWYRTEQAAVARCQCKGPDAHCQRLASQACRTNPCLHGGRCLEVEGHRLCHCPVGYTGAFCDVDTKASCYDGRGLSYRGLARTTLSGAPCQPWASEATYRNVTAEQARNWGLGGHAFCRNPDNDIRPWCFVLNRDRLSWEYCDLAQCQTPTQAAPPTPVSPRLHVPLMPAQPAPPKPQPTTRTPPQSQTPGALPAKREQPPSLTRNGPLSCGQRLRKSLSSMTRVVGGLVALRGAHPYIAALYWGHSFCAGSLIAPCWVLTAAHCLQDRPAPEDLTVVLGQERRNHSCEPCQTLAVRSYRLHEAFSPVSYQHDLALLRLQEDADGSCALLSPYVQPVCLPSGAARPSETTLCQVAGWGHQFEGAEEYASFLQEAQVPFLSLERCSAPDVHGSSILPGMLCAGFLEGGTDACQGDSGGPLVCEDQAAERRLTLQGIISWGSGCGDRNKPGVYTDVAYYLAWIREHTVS
The format is functional.

In test [4] the target is Prothrombin (Homo sapiens, UniProt P00734). Description: Thrombin 1536 HTS Dose Response Confirmation. [Related pubchem assays: 1046 (Thrombin 1536 HTS; hits were confirmed in this assay)]. In kind it is functional.
Test [5] relates to SN12K1. Description: cells. In kind it is functional. Particulars: Homo sapiens.
Test [6] has as its system P388. Description: cells. The format is functional. The note with it: Mus musculus.
Test [7] relates to P388/ADR. Description: cells. The format is functional. Particulars: Mus musculus.
The target in test [8] is T3, Heat shock factor protein 1 (Mus musculus, UniProt P38532).
T3 sequence (P38532 whole entry): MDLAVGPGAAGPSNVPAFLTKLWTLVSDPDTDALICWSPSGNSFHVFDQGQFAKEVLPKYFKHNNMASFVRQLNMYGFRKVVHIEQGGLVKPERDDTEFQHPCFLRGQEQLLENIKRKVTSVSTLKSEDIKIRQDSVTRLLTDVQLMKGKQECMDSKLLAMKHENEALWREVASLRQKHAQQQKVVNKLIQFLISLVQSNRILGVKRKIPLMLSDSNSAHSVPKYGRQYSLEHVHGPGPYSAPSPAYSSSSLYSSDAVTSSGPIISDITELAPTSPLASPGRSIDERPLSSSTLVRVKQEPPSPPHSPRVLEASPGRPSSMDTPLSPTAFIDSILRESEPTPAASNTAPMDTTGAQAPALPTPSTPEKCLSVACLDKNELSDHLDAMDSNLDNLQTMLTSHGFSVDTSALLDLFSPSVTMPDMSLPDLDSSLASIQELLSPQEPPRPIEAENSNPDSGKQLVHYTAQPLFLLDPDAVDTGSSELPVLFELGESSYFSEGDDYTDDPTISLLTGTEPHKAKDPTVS
Description: inhibition of MG132-induced HSE-luciferase signal, confirmation, cell-based, NIH3T3, luminescence, dose retest (AID 2382).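 Further: NIH3T3 fibroblasts with HSF1-driven luciferase reporter stressed by proteasome inhibitor MG132; luminescence from HSF1-driven luciferase expression after 8 hours of MG132 stress.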 The format is functional.

Test [9] addresses Cytochrome P450 3A4 (Homo sapiens, UniProt P08684). Particulars: Potency.
Test [10] deals with T4, Fatty acid synthase (Homo sapiens, UniProt P49327). Description: FAS thioesterase domain inhibitors, dose response, biochemical, endpoint fluorescence intensity, uHTS hits (AID 624327).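 Further: fluorescence from hydrolysis of an O-methyl fluorescein acyl ester substrate by the enzyme.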 In kind it is functional.
T4 sequence (P49327 whole entry, the tested form may be a part): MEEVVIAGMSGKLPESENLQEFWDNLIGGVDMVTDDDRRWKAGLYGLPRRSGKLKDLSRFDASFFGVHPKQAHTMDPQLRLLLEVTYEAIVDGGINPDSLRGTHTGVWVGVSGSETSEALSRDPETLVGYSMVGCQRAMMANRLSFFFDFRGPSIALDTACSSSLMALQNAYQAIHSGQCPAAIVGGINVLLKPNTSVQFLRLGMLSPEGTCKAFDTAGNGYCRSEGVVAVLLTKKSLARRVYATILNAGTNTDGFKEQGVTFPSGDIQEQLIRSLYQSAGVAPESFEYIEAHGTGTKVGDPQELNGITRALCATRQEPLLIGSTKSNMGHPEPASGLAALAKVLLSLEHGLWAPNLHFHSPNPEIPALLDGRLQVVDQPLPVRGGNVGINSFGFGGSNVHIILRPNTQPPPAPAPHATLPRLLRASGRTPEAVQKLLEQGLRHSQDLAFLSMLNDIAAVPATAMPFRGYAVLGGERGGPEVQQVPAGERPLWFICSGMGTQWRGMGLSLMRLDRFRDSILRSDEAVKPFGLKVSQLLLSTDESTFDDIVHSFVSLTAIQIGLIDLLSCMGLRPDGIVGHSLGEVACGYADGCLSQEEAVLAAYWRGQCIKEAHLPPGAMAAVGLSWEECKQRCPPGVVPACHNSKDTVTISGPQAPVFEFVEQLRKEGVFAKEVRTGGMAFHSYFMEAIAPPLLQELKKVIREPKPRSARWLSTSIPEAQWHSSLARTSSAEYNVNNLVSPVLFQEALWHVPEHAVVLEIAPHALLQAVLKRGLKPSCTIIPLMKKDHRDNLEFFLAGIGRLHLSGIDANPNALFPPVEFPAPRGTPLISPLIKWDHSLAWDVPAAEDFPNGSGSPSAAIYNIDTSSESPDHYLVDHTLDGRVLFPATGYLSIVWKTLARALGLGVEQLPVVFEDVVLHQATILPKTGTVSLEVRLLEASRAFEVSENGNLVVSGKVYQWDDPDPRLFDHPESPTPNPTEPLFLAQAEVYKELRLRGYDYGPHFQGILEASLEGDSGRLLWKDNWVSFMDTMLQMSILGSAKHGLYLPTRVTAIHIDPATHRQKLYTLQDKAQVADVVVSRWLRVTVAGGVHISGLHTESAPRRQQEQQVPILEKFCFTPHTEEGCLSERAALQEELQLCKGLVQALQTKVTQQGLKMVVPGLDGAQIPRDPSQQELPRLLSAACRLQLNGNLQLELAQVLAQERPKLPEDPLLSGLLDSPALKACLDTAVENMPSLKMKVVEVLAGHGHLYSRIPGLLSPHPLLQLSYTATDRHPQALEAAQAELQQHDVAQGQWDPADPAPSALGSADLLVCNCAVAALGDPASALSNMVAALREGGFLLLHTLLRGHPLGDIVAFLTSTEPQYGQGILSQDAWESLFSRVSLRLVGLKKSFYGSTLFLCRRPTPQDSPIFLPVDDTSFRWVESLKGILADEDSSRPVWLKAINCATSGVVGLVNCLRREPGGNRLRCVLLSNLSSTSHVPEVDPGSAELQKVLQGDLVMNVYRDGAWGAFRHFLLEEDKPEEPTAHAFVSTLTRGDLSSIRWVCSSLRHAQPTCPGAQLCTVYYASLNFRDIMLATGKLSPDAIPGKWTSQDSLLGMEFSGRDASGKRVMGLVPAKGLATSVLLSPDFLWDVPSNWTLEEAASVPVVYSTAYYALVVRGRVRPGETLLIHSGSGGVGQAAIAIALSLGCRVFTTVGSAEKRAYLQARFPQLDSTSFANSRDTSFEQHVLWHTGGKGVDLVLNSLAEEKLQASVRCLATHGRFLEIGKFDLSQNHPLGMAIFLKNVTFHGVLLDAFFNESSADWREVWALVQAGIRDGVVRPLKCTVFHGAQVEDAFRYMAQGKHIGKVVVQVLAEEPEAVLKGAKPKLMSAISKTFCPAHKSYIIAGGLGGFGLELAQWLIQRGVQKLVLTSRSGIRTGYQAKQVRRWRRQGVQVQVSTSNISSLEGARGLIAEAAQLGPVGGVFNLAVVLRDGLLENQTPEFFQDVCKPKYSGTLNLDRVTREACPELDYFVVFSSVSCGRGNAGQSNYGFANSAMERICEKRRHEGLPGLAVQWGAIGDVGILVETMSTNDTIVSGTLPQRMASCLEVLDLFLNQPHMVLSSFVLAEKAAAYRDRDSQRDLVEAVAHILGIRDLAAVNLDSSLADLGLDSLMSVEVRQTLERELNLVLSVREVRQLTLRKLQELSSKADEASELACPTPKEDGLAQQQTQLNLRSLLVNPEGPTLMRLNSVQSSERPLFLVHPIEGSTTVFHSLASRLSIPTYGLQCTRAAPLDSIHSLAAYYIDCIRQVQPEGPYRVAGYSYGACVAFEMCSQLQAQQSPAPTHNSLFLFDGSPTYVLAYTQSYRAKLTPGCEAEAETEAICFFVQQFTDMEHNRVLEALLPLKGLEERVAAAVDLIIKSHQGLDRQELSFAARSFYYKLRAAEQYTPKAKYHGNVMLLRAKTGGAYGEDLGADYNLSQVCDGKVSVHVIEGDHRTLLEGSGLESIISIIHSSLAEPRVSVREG
Test [11] has as its target Nonstructural protein 1 (Influenza A virus, UniProt Q194T2). In kind it is functional, Influenza A virus (A/California/07/2009(H1N1)).
Test [12] addresses T4, Fatty acid synthase. Description: FAS thioesterase domain inhibitors, dose response, biochemical, kinetic fluorescence intensity (AID 624326).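 Further: rate of fluorescence rise from hydrolysis of a fluorogenic O-methyl fluorescein ester substrate.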 The format is functional.
Test [13] has as its target Induced myeloid leukemia cell differentiation protein Mcl-1 (Homo sapiens, UniProt Q07820). The format is functional.
Test [14] concerns the target Paired box protein Pax-8 (Homo sapiens, UniProt Q06710). Description: inhibitors of PAX8-driven TPO luciferase reporter, dose response, RMG-I cells, cherry-pick (AID 687027).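 Further: luciferase reporter driven by Pax8 target thyroperoxidase promoter measured by SteadyGlo luminescence.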 In kind it is functional, cell-based.
The nature of test [15]: cytotoxicity in OVCAR8 ovarian cancer cells, dose response, PAX8 project, cell-based, plate reader, dry powder samples (AID 743197). The format is functional. The note with it: OVCAR-8.
A short description of test [16]: NIH:OVCAR-3 ovarian cancer cell cytotoxicity, dose response, PAX8 inhibitor project, plate reader, dry powder samples (AID 743044). In kind it is functional, cell-based.
The target of test [17] is T5, Protein skinhead-1 (Caenorhabditis elegans, UniProt P34707).
T5 sequence (P34707 whole entry): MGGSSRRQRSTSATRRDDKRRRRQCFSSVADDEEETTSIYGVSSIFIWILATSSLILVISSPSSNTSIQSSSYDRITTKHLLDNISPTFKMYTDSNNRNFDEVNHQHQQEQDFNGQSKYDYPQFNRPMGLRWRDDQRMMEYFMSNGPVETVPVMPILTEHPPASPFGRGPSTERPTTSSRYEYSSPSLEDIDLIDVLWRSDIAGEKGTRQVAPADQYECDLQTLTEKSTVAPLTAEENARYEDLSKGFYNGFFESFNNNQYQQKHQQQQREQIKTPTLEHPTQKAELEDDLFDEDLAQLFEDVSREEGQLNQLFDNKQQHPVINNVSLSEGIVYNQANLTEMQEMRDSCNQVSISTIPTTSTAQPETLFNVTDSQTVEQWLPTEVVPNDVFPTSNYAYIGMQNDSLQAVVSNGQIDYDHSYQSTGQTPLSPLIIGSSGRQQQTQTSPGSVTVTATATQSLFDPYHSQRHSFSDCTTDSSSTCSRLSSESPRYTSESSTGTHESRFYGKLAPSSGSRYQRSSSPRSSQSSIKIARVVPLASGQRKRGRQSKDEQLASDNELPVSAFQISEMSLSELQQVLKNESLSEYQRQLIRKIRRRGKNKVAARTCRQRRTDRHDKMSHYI
The format is functional.

A short description of test [18]: Luminescence Cell-Based Dose Retest to Confirm Inhibitors of Cancer Stem Cells. [Related pubchem assays (depositor defined):AID2717, AID2721]. The format is functional. The note with it: Homo sapiens.

The source made the active and inactive calls.

Sequence of Cytochrome P450 3A4 (P08684 whole entry, the tested form may be a part): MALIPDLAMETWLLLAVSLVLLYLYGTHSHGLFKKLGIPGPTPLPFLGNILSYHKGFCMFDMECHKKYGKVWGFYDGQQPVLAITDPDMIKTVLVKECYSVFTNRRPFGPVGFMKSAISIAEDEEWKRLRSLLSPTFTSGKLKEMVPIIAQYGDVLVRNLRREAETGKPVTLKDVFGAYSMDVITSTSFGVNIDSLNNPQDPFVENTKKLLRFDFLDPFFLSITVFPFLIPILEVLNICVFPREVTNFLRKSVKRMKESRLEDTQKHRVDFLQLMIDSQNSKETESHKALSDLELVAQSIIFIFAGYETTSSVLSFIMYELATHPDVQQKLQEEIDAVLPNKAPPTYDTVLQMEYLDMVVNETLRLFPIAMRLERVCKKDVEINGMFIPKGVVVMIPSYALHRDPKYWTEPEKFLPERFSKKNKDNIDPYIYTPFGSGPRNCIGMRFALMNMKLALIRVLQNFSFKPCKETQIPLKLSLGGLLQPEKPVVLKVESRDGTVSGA
Sequence of Nonstructural protein 1 (Q194T2 whole entry, the tested form may be a part): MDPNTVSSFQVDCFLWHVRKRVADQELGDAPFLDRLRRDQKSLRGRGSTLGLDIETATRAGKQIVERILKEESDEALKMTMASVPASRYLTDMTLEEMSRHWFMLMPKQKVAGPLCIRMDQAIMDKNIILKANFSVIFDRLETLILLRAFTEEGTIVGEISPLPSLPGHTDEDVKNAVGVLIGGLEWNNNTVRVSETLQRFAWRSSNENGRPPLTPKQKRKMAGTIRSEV
Sequence of Paired box protein Pax-8 (Q06710 whole entry): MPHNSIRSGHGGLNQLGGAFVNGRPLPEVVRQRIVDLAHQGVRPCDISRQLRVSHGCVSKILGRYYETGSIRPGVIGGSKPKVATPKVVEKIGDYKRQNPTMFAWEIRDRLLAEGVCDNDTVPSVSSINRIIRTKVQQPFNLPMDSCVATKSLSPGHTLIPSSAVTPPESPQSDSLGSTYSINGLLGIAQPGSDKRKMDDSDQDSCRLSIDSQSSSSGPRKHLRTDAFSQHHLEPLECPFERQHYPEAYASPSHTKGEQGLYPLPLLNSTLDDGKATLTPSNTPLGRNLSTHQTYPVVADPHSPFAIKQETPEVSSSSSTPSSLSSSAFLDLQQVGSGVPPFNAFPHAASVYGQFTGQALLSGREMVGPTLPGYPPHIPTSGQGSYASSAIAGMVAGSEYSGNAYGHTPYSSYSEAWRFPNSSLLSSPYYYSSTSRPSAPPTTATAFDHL
Sequence of Induced myeloid leukemia cell differentiation protein Mcl-1 (Q07820 whole entry): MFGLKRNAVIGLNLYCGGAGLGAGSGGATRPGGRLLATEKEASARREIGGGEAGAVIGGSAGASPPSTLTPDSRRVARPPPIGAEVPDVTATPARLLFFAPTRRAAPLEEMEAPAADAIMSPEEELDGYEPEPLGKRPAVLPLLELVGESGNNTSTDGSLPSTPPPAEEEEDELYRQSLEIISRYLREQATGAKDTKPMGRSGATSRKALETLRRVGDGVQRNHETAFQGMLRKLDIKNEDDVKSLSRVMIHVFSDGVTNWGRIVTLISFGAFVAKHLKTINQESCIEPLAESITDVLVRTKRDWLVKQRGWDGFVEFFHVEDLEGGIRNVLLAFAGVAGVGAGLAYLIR

For orientation: Ki means the equilibrium dissociation constant of an inhibitor or competing ligand from its target. `O=C(C1=C(O)C(=O)N(CCc2ccccc2)C1c1cccnc1)c1ccco1` (centres undefined): in test [1], the Ki is > 66.7 µM (inactive).

The term IC50 denotes the concentration at which inhibition is half-maximal. On to `Clc1ccc2oc3c(Cl)ncnc3c2c1`, for which the IC50 in [2] is 6.41 µM (active).

In the case of `CC(CN1C(C)CCCC1C)OC(=O)c1ccc(Cl)cc1Cl` (centres undefined), in test [3], the IC50 was > 50 µM (inactive).

As to `O=C1NC2(CCCCC2)NN1c1ccccc1`, the IC50 in [4] was > 50 µM (not active).

What is called GI50 is the concentration that inhibits growth by half. For the compound `C[C@H](N)C(=O)N[C@@H]1[C@H]2C(=C(O)C[C@@H](O)[C@@H]2O)C(=O)O[C@@H]1C`, the GI50 was > 100 µM (inactive) in test [5], > 53.2 µM (inactive) in [6] and > 73.3 µM (inactive) in [7].

In the case of `Nc1ccnn1Cc1cccs1`, the IC50 in test [3] was > 50 µM (inactive).

What is called EC50 is the midpoint of the concentration-response curve. Take `O=C(O)CC(Cc1ccc(Br)cc1)C(=O)O` (centres undefined): the EC50 in [8] is recorded as > 195 µM (not active). In addition, in test [3], the IC50 was > 50 µM (inactive).

Consider `CCC(CC)c1nnc(NC(=O)Oc2ccccc2)s1`, for which, in test [3], the IC50 was > 50 µM (inactive).

For `COC1=C(C)C(=O)C2=C(C1=O)[C@@H]1[C@@H]3Cc4c(OC(=O)CO)c(C)c(OC)c(O)c4[C@H](CNC(=O)C(C)=O)N3[C@@H](C#N)[C@H](C2)N1C`, the figures for the GI50 in test [5], in [6] and in [7] were 0.0358 µM (active), < 0.01 µM (active) and 0.125 µM (active), respectively.

What is called AC50 is the concentration at which the activity in the assay is half-maximal. With `COCCN(CCOC)c1nc(C)nc2c1nc(-c1ccccc1)n2CCN1CCCC1`, the AC50 in [9] is 20 µM (inconclusive).

For the compound `Cc1cc(-c2ccccc2)nc(N/N=C/c2ccc([N+](=O)[O-])cc2)n1`, the IC50 is 8.37 µM (active) in test [10], > 100 µM (active) in test [11] and 6.41 µM (active) in [12].

Take `COc1cc(/C=N/Nc2n[nH]c3c4ccccc4nc-3n2)ccc1O`: in [13], the IC50 was 3.9 µM (active).

As to `COC(=O)[C@H](C(C)C)n1c(C)c(C(C)=O)c(C(C)=O)c1C`, the Ki in [1] was > 66.7 µM (inactive).

On to `CC(C)c1ccc2c(c1)CCC1C(C)(C(N)=O)CCCC21C` (centres undefined), for which the AC50 in [9] was 20 µM (inconclusive).

Take `O=C(C1=C(O)C(=O)N(CCCN2CCOCC2)C1c1ccccn1)c1cc2ccccc2o1` (centres undefined): the Ki in [1] was 60.7 µM (inactive).

Regarding `C#CCNC(=O)CCC(N)C(=O)O` (centres undefined), the GI50 in test [5], in test [6] and in test [7] was > 100 µM (inactive) throughout.

Regarding `CCCC(=O)n1nc(-c2cccnc2)nc1NCc1cccs1`, the IC50 in test [4] is 0.00426 µM (active).

In the case of `Cc1ccc(S(=O)(=O)Nc2ccc3c(c2)C(=O)N([C@@H](C)CO)C[C@@H](C)[C@H](CN(C)Cc2ccc(C(F)(F)F)cc2)OCCCC[C@H](C)O3)cc1`, the AC50 in test [14] was 6.38 µM (active); in [15] it was > 70 µM (inactive); in test [16], 4.07 µM (active).

Regarding `Cc1ccc(/C=C2\C(=O)NC(=O)N(CCc3ccc(F)cc3)C2=O)o1`, the IC50 in test [2] is 3.55 µM (active).

With `COc1ccc(-c2ccc3c(c2)[C@@H]2[C@@H](CCN2S(=O)(=O)c2ccc(OC)cc2)[C@@H](CO)N3C)cc1`, the AC50 in test [14] is 12.3 µM (active); in test [15], 51.2 µM (active); in [16], 31.2 µM (active).

For the compound `O=C(CSC1CCCCC1)Nc1nccs1`, the IC50 in test [4] is > 50 µM (not active).

Take `CCN(CC)c1ccc2c(C)cc(=O)oc2c1`: in [9], the AC50 is 20 µM (inconclusive).

Take `CC(C)=CCC/C(C)=C/C=C/C1=CC2(C)CC1(C)C(/C=C(\C)CCC=C(C)C)CC2=O` (centres undefined): the AC50 in test [9] was 3.98 µM (inconclusive).

Regarding `COc1ccc(N(CC(=O)Nc2ccc3c(c2)OCCO3)S(=O)(=O)c2c(C)nn(C)c2C)cc1`, in [3], the IC50 was > 50 µM (inactive).

As to `NC(=O)c1ccsc1NC(=O)c1nc(-c2ccccc2)n(-c2ccccc2)n1`, the IC50 in test [4] is 4.3 µM (active).

For the compound `CCc1nnc(NC(=O)CSc2nnc(-c3cc4ccccc4cc3O)n2CC)s1`, the Ki in [1] is 61.1 µM (inactive).

For `CCN1C(=O)/C(=C2\C=Cc3cc(C)ccc3N2CC)OC1=S`, the IC50 in test [11] is > 100 µM (active); in test [17], > 100 µM (inactive).

As for `CN(N=O)C(=O)N[C@H]1C(O)O[C@H](CO)[C@@H](O)[C@@H]1O` (some centres undefined), the GI50 in test [5] was 532 µM (inactive); in test [6], 451 µM (inactive); in test [7], 484 µM (inactive).

As for `CC1[C@@]2(O[C@@H]3C=C4C5CCC6Cc7nc8c(nc7C[C@@]6(C)C5C[C@H](O)[C@@]4(C)[C@]13O)CC1CCc3c(cc4c5c3C(O)C[C@H]5[C@@H](C)C3(O4)OC(C)(C)CC3O)[C@]1(C)C8)O[C@@](C)(CO)C[C@@H]2O` (some centres undefined), the GI50 is 0.0404 µM (active) in test [5], 0.103 µM (active) in [6] and 2.69 µM (inactive) in test [7].

`COc1cc(/C=N/NC(=O)c2cc(C34CC5CC(CC(C5)C3)C4)[nH]n2)ccc1O`: in test [2], the IC50 is 2.69 µM (active). For the same compound, the AC50 in [18] was 0.699 µM (active).

For the compound `CC(=O)n1nc(-c2ccc(Cl)cc2)nc1NCc1ccco1`, the concentration for half-maximal inhibition (IC50) in test [4] was 1.44 µM (active).

Turning to `Nc1ccn(C2OC(CO)C(O)C2O)c(=O)c1` (centres undefined), the values for the GI50 in test [5] and in test [6] were 344 µM (inactive) and 57 µM (inactive), respectively.

As to `Cc1nn2c(CN(C(=O)CN3CCOCC3)c3ccccc3)nnc2c2ccccc12`, in test [8], the 50% effective concentration (EC50) is > 195 µM (not active). Further, in [3], the IC50 is > 50 µM (inactive).
